# From patent publication US20250230147A1, “LACTAMS AS CBL-B INHIBITORS” (Genentech, Inc., priority 2021, published 2025)
# Structures can show the parent of a compound that is named as a salt.
# Tests used:
# [1] = target: Cbl-b (Homo sapiens (Human), UniProt Q13191); assay: Cbl-b LCK Ub TR-FRET assay (Cbl-b Lck HTRF); assay type: biochemical
# In short: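 TR-FRET (340 nm excitation, 615/665 nm emission) read after adding HA-ubiquitin–UBE2D2 thioester, anti-HA-D2 and streptavidin-Eu. Beforehand, compounds incubated 60 min with biotinylated Cbl-b, then 90 min with His-LCK and ATP (1 mM in 2× mix); IC50 from 10 concentrations, DMSO high and no-LCK low controls.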
# [2] = target: c-Cbl (Homo sapiens (Human), UniProt P22681); assay: C-Cbl LCK Ub TR-FRET assay (c-cbl Lck HTRF); assay type: biochemical; settings: for (fold-selectivity): C-cbl Lck HTRF IC50 relative to Cbl-b Lck HTRF IC50
# In short: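 Detection reagents added, brief spin, 20 min RT. IC50 fit normalized to no-LCK (low) and DMSO (high) controls.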
# c-Cbl, sequence (P22681 47-435): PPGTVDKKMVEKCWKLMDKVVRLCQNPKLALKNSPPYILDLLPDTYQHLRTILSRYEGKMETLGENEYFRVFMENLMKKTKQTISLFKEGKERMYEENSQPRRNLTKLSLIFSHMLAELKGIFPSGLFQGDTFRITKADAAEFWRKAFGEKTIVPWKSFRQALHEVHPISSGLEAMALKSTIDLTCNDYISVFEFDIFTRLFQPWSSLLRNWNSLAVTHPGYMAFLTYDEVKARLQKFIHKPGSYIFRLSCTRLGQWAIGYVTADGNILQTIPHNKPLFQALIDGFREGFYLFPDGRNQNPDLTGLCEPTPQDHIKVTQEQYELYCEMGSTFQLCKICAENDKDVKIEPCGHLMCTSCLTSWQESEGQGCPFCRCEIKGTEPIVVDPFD
# Cbl-b, sequence (Q13191 40-426): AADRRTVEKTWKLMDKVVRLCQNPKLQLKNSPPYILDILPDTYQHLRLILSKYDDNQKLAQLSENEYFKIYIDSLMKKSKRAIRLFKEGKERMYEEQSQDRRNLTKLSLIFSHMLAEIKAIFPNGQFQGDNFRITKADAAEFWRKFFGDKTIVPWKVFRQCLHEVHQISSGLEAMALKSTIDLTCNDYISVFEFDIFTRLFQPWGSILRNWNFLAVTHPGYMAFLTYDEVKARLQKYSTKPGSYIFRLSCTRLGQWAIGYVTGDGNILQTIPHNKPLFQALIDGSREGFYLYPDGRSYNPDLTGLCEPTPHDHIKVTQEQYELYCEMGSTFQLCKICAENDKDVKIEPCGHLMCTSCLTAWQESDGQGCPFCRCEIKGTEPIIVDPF
IC50 [1],IC50 [2],(fold-selectivity) [2],SMILES
890 nM,1900 nM,2.1x,"Cn1cnnc1[C@H](F)[C@@](C)(F)c1cccc(N2Cc3c(cc(CN4CC(C)(F)C4)cc3C(F)(F)F)C2=O)c1 [Compound 33, 2-(3-((1 S,2S)-1,2-difluoro-1-(4-methyl-4H-1,2,4-triazol-3-yl)propan-2-yl)phenyl)-6-((3-fluoro-3-methylazetidin-1-yl)methyl)-4-(trifluoromethyl)isoindolin-1-one]"
34 nM,35 nM,1.0x,"C[C@@H]1CN(Cc2cc3c(c(C(F)(F)F)c2)CN(c2cccc(C4(Cc5nncn5C)CC(F)(F)C4)c2)C3=O)CCN1C [Compound 220, (R)-2-(3-(3,3-difluoro-1-((4-methyl-4H-1,2,4-triazol-3-yl)methyl)cyclobutyl)phenyl)-6-((3,4-dimethylpiperazin-1-yl)methyl)-4-(trifluoromethyl)isoindolin-1-one]"
320 nM,780 nM,2.4x,"CO[C@@H]1CCN(Cc2cc3c(c(C(F)(F)F)c2)CN(c2cccc(C4([C@H](F)c5nncn5C)COC4)c2)C3=O)C1 [Compound 48, 2-(3-(3-((S)-fluoro(4-methyl-4H-1,2,4-triazol-3-yl)methyl)oxetan-3-yl)phenyl)-6-(((R)-3-methoxypyrrolidin-1-yl)methyl)-4-(trifluoromethyl)isoindolin-1-one]"
130 nM,350 nM,(2.6x),"CC(C)[C@H]1CN(C)CCN1Cc1cc2c(c(C(F)(F)F)c1)CN(c1cccc(C3([C@H](F)c4nc(F)cn4C)COC3)c1)C2=O [Compound 270, 2-(3-(3-((S)-fluoro(4-fluoro-1-methyl-1H-imidazol-2-yl)methyl)oxetan-3-yl)phenyl)-6-(((S)-2-isopropyl-4-methylpiperazin-1-yl)methyl)-4-(trifluoromethyl)isoindolin-1-one]"
20000 nM,≥ 20000 nM,(1.0x),"Cc1ncn(CC2(c3cccc(N4Cc5c(cc(CN6CCN(C)C[C@@H]6C(C)C)cc5C(F)(F)F)C4=O)c3)COC2)n1 [Compound 255, (S)-6-((2-isopropyl-4-methylpiperazin-1-yl)methyl)-2-(3-(3-((3-methyl-1H-1,2,4-triazol-1-yl)methyl)oxetan-3-yl)phenyl)-4-(trifluoromethyl)isoindolin-1-one]"
17 nM,13 nM,(0.78x),"CC(C)[C@H]1CN(C)CCN1Cc1cc2c(c(C(F)(F)F)c1)CN(c1cccc(C3(C(F)(F)c4nncn4C)CC(F)(F)C3)c1)C2=O [Compound 432, (S)-2-(3-(1-(difluoro(4-methyl-4H-1,2,4-triazol-3-yl)methyl)-3,3-difluorocyclobutyl)phenyl)-6-((2-isopropyl-4-methylpiperazin-1-yl)methyl)-4-(trifluoromethyl)isoindolin-1-one]"
580 nM,840 nM,(1.4x),"CC(C)[C@H]1CN(C)CCN1Cc1cc2c(c(C(F)(F)F)c1)CN(c1cccc([C@]3([C@H](F)c4nncn4C)CCO3)c1)C2=O (single isomer, unassigned) [Compound 262]"
570 nM,480 nM,(0.84x),"Cn1cnnc1CC1(c2cc(NCC3CCS(=O)(=O)CC3)nc(N3Cc4c(cc(CNC5(C)CCC5)cc4C(F)(F)F)C3=O)c2)CCC1 [Compound 315, 2-(6-(((1,1-dioxidotetrahydro-2H-thiopyran-4-yl)methyl)amino)-4-(1-((4-methyl-4H-1,2,4-triazol-3-yl)methyl)cyclobutyl)pyridin-2-yl)-6-(((1-methylcyclobutyl)amino)methyl)-4-(trifluoromethyl)isoindolin-1-one]"
16 nM,11 nM,(0.68x),"CC(C)[C@H]1CN(C)CCN1Cc1cc(Cl)c2c(c1)C(=O)N(c1cccc(C3(Cc4nncn4C)CC(F)(F)C3)c1)C2 [Compound 281, (S)-4-chloro-2-(3-(3,3-difluoro-1-((4-methyl-4H-1,2,4-triazol-3-yl)methyl)cyclobutyl)phenyl)-6-((2-isopropyl-4-methylpiperazin-1-yl)methyl)isoindolin-1-one]"
36 nM,44 nM,1.2x,"CC1CN(Cc2cc3c(c(C(F)(F)F)c2)CN(c2cccc(C4([C@H](F)c5nncn5C)COC4)c2)C3=O)CCCO1 (stereo partly drawn) [Compound 120, 2-(3-(3-((S)-fluoro(4-methyl-4H-1,2,4-triazol-3-yl)methyl)oxetan-3-yl)phenyl)-6-((2-methyl-1,4-oxazepan-4-yl)methyl)-4-(trifluoromethyl)isoindolin-1-one]"
100 nM,210 nM,2.1x,"Cn1cnnc1[C@H](F)C1(c2cccc(N3Cc4c(cc(CN5CCOCC5)cc4C(F)(F)F)C3=O)c2)COC1 [Compound 88, (R)-2-(3-(3-(fluoro(4-methyl-4H-1,2,4-triazol-3-yl)methyl)oxetan-3-yl)phenyl)-6-(morpholinomethyl)-4-(trifluoromethyl)isoindolin-1-one]"
57 nM,52 nM,(0.93x),"CC(C)NCc1cc2c(c(C(F)(F)F)c1)CN(c1cccc(C3([C@@H](F)c4nncn4C)CC(F)(F)C3)c1)C2=O [Compound 417, (R)-2-(3-(3,3-difluoro-1-(fluoro(4-methyl-4H-1,2,4-triazol-3-yl)methyl)cyclobutyl)phenyl)-6-((isopropylamino)methyl)-4-(trifluoromethyl)isoindolin-1-one]"
350 nM,1300 nM,3.5x,"Cn1cnnc1[C@@H](F)C1(c2cccc(N3Cc4c(cc(CN5CCC56COC6)cc4C(F)(F)F)C3=O)c2)COC1 [Compound 176, (S)-6-(6-oxa-1-azaspiro[3.3]heptan-1-ylmethyl)-2-(3-(3-(fluoro(4-methyl-4H-1,2,4-triazol-3-yl)methyl)oxetan-3-yl)phenyl)-4-(trifluoromethyl)isoindolin-1-one]"
12 nM,12 nM,(1.0x),"Cn1cnnc1[C@H](F)C1(c2cccc(N3Cc4c(cc(CNC5(C)CCC5)cc4C(F)(F)F)C3=O)c2)CC(F)(F)C1 [Compound 464, (R)-2-(3-(3,3-difluoro-1-(fluoro(4-methyl-4H-1,2,4-triazol-3-yl)methyl)cyclobutyl)phenyl)-6-(((1-methylcyclobutyl)amino)methyl)-4-(trifluoromethyl)isoindolin-1-one]"
22 nM,25 nM,(1.1x),"C[C@H](N)c1cc2c(c(C(F)(F)F)c1)CN(c1cccc(C3(Cc4nncn4C)CC(F)(F)C3)c1)C2=O [Compound 384, (S)-6-(1-aminoethyl)-2-(3-(3,3-difluoro-1-((4-methyl-4H-1,2,4-triazol-3-yl)methyl)cyclobutyl)phenyl)-4-(trifluoromethyl)isoindolin-1-one]"
70 nM,110 nM,(1.5x),"CNS(=O)(=O)CCNc1cc(C2(Cc3nncn3C)CCC2)cc(N2Cc3c(cc(CNC4(C)CCC4)cc3C(F)(F)F)C2=O)n1 [Compound 312, N-methyl-2-((4-(1-((4-methyl-4H-1,2,4-triazol-3-yl)methyl)cyclobutyl)-6-(6-(((1-methylcyclobutyl)amino)methyl)-1-oxo-4-(trifluoromethyl)isoindolin-2-yl)pyridin-2-yl)amino)ethanesulfonamide]"
29 nM,46 nM,1.6x,"Cn1cnnc1[C@H](F)C1(c2cccc(N3Cc4c(cc([C@H](N)C5CC5)cc4C(F)(F)F)C3=O)c2)COC1 [Compound 54, 6-((R)-amino(cyclopropyl)methyl)-2-(3-(3-((R)-fluoro(4-methyl-4H-1,2,4-triazol-3-yl)methyl)oxetan-3-yl)phenyl)-4-(trifluoromethyl)isoindolin-1-one]"
77 nM,93 nM,(1.2x),"CC(C)[C@H]1CN(C)CCN1Cc1cc2c(c(C(F)(F)F)c1)CN(c1cccc(C3([C@@H](F)c4nncn4C4CC4)COC3)c1)C2=O [Compound 486, 2-(3-(3-((R)-(4-cyclopropyl-4H-1,2,4-triazol-3-yl)fluoromethyl)oxetan-3-yl)phenyl)-6-(((S)-2-isopropyl-4-methylpiperazin-1-yl)methyl)-4-(trifluoromethyl)isoindolin-1-one]"

SMILES,IC50 [1],IC50 [2],(fold-selectivity) [2]
"CC(C)Nc1cc([C@H](C)Cc2nncn2C)cc(N2Cc3c(cc(CN4CCC5(CC5)C4)cc3C(F)(F)F)C2=O)n1.O=CO [Compound 55, (R)-6-((5-azaspiro[2.4]heptan-5-yl)methyl)-2-(6-(isopropylamino)-4-(1-(4-methyl-4H-1,2,4-triazol-3-yl)propan-2-yl)pyridin-2-yl)-4-(trifluoromethyl)isoindolin-1-one formate]",16 nM,26 nM,1.6x
"CC(NCc1cc2c(c(C(F)(F)F)c1)CN(c1cccc(C3(Cc4nncn4C)CC(F)(F)C3)c1)C2=O)C1CC1 (stereo not shown) [Compound 319, 6-(((1-cyclopropylethyl)amino)methyl)-2-(3-(3,3-difluoro-1-((4-methyl-4H-1,2,4-triazol-3-yl)methyl)cyclobutyl)phenyl)-4-(trifluoromethyl)isoindolin-1-one formate]",14 nM,16 nM,–
"CCOc1cc([C@H](C)Cc2nncn2C)cc(N2Cc3c(cc(CN4CCC5(CC5)C4)cc3C(F)(F)F)C2=O)n1 [Compound 56, (R)-6-((5-azaspiro[2.4]heptan-5-yl)methyl)-2-(6-ethoxy-4-(1-(4-methyl-4H-1,2,4-triazol-3-yl)propan-2-yl)pyridin-2-yl)-4-(trifluoromethyl)isoindolin-1-one formate]",16 nM,22 nM,–
